Experimental data reported in publication PMC4334727 (Circulation, 2014).
pIC50: −log10 of the molar value.

How the values were obtained:
DUSP3 = DUSP3 (Homo sapiens, UniProt P51452); assay: DUSP3 phosphatase inhibition assay; assay type: biochemical
TCPTP = target: T1, TCPTP (Homo sapiens, UniProt P17706); assay: PTP selectivity profiling; assay type: biochemical
T1 sequence (P17706 1-415): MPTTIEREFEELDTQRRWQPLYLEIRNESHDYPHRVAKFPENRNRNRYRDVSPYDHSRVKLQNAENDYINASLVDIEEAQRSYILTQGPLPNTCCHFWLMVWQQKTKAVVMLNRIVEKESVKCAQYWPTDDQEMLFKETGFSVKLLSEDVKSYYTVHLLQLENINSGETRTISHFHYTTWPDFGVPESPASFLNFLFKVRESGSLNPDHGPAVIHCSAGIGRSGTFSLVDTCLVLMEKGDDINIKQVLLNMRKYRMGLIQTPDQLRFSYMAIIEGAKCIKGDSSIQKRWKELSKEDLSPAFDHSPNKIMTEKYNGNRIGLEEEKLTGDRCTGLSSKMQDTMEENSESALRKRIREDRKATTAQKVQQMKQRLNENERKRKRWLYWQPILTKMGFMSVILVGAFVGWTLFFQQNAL

PTP-SL = assay: PTP selectivity profiling; assay type: biochemical
CD45 = target: T2, CD45 (Homo sapiens, UniProt P08575); assay: PTP selectivity profiling; assay type: biochemical
T2 sequence (P08575 26-1306): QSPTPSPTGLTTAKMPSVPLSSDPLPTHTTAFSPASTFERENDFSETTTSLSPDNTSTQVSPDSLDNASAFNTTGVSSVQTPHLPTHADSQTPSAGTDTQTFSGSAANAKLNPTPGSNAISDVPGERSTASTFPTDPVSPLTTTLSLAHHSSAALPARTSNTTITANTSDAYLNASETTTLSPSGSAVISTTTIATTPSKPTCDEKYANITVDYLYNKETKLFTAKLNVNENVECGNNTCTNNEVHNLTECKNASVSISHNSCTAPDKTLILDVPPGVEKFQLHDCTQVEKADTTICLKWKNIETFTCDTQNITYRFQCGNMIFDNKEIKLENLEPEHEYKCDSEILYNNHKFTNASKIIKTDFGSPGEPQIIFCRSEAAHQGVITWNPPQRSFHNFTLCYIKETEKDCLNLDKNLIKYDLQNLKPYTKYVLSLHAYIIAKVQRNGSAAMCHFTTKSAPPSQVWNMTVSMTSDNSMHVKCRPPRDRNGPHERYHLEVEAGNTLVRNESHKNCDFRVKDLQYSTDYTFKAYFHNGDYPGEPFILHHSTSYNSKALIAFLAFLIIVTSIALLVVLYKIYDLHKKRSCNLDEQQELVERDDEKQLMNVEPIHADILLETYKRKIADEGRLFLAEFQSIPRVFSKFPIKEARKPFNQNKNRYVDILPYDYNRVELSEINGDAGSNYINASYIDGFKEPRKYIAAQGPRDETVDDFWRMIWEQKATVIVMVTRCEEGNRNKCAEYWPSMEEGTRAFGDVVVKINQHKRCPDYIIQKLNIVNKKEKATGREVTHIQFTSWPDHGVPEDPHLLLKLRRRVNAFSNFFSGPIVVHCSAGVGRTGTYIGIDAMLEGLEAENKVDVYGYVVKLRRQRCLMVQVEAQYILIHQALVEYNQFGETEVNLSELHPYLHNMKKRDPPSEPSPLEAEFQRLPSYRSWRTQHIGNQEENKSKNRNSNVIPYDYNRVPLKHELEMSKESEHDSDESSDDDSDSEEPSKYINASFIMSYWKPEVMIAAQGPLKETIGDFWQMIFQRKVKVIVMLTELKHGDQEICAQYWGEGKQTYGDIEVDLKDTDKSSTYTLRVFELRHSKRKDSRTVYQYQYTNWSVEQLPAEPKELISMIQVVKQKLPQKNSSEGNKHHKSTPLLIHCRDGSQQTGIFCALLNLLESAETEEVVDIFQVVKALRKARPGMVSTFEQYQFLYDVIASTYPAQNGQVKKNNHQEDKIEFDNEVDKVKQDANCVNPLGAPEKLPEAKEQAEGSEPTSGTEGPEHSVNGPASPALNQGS

LAR = LAR (Homo sapiens, UniProt P10586); assay: PTP selectivity profiling; assay type: biochemical
DUSP6 = target: T3, DUSP6 (Homo sapiens, UniProt Q16828); assay: PTP selectivity profiling; assay type: biochemical
T3 sequence (Q16828 1-381): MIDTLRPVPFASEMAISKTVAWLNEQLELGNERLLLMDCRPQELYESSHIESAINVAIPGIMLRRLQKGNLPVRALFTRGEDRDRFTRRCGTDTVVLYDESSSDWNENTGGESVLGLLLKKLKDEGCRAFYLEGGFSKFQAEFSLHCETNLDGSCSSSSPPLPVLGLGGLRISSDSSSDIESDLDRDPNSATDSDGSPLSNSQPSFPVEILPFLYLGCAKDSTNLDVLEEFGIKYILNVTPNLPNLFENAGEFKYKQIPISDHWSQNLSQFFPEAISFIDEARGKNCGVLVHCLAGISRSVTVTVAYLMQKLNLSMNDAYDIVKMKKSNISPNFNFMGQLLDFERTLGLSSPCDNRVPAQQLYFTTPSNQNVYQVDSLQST

[1] = tested on: DUSP3-deficient platelets; assay: Platelet aggregation in washed platelets from Dusp3-KO mice; details: Dusp3-KO mouse washed platelets, 3.7 μM, pre-incubated 30 min
PTP1B = target: T4, PTP1B (Homo sapiens, UniProt P18031); assay: PTP selectivity profiling; assay type: biochemical
T4 sequence (P18031 1-435): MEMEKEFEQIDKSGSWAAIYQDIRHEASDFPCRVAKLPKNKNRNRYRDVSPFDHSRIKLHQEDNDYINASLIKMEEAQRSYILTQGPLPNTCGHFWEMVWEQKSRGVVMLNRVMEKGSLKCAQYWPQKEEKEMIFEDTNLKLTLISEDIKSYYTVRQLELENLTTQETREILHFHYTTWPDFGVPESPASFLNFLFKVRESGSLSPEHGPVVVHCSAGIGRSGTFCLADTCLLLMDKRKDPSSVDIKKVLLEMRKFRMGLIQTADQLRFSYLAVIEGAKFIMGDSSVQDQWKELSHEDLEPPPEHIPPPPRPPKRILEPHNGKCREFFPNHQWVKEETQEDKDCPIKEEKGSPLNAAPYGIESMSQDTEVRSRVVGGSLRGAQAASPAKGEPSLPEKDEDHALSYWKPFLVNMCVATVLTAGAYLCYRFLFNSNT

human platelets = assay type: cell-based
HePTP = target: T5, HePTP (Homo sapiens, UniProt P35236); assay: PTP selectivity profiling; assay type: biochemical
T5 sequence (P35236 1-360): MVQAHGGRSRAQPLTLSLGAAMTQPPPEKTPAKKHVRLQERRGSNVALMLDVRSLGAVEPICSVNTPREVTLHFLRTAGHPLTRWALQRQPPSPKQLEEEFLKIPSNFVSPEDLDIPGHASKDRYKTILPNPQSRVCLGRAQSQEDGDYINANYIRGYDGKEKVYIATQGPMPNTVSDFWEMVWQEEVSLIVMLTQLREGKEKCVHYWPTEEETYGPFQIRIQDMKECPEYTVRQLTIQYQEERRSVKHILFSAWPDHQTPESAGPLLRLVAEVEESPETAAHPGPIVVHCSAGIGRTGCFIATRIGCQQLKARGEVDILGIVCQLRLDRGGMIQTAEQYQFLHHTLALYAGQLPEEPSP

STEP = target: T6, STEP (Homo sapiens, UniProt P54829); assay: PTP selectivity profiling; assay type: biochemical
T6 sequence (P54829 1-565): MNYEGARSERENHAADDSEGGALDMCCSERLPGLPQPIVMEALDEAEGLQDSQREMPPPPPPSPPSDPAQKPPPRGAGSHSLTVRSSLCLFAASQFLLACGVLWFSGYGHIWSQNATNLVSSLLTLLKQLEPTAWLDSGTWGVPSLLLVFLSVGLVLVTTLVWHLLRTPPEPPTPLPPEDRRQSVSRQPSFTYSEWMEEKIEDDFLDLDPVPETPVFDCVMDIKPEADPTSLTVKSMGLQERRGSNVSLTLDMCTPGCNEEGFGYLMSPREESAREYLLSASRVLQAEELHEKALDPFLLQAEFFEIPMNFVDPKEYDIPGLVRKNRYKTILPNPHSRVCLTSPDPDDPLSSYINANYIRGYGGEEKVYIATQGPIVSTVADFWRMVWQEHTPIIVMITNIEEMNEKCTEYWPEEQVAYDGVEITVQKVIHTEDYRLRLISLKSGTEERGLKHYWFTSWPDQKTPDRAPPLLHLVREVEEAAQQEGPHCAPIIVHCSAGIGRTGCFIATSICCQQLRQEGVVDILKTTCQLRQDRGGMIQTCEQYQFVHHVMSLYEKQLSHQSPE

DUSP22 = target: T7, DUSP22 (Homo sapiens, UniProt Q9NRW4); assay: PTP selectivity profiling; assay type: biochemical
T7 sequence (Q9NRW4 1-184): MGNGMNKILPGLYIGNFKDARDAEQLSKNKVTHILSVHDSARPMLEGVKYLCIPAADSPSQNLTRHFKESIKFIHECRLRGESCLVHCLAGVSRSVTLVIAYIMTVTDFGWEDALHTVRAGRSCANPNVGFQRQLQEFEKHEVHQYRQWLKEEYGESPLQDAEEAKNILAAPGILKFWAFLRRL

LYP = target: T8, LYP (Homo sapiens, UniProt Q9Y2R2); assay: PTP selectivity profiling; assay type: biochemical
T8 sequence (Q9Y2R2 1-807): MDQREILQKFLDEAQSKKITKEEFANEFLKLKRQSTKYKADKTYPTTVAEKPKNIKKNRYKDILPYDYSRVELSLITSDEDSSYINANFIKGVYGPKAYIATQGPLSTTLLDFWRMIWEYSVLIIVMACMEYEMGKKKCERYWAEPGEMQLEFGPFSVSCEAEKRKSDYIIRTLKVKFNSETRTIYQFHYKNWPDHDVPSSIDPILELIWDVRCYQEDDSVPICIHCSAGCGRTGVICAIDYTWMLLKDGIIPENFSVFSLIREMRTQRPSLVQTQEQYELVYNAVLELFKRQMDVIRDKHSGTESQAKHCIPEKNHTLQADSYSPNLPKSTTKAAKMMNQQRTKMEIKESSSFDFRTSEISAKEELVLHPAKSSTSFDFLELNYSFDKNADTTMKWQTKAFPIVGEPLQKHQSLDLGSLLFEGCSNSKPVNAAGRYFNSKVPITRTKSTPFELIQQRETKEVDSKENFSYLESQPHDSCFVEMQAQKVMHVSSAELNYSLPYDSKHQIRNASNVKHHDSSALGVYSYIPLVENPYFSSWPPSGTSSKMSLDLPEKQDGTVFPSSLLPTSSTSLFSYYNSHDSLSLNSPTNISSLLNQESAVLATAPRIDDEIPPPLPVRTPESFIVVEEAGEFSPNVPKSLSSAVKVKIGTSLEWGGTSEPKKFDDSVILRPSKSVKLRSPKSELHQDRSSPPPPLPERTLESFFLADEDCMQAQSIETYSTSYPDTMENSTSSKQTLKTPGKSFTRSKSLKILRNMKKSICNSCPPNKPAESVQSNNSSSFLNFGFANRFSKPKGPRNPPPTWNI

[2] = DUSP3, HTS hits, text (Supplemental Table S2)

Chain of DUSP3 (P51452 whole entry): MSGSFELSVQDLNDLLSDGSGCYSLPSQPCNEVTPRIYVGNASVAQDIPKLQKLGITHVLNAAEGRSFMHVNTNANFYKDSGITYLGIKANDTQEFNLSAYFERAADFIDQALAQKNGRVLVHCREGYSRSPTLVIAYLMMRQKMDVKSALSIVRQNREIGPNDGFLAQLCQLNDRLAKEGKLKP
Chain of LAR (P10586 30-1907, species assumed): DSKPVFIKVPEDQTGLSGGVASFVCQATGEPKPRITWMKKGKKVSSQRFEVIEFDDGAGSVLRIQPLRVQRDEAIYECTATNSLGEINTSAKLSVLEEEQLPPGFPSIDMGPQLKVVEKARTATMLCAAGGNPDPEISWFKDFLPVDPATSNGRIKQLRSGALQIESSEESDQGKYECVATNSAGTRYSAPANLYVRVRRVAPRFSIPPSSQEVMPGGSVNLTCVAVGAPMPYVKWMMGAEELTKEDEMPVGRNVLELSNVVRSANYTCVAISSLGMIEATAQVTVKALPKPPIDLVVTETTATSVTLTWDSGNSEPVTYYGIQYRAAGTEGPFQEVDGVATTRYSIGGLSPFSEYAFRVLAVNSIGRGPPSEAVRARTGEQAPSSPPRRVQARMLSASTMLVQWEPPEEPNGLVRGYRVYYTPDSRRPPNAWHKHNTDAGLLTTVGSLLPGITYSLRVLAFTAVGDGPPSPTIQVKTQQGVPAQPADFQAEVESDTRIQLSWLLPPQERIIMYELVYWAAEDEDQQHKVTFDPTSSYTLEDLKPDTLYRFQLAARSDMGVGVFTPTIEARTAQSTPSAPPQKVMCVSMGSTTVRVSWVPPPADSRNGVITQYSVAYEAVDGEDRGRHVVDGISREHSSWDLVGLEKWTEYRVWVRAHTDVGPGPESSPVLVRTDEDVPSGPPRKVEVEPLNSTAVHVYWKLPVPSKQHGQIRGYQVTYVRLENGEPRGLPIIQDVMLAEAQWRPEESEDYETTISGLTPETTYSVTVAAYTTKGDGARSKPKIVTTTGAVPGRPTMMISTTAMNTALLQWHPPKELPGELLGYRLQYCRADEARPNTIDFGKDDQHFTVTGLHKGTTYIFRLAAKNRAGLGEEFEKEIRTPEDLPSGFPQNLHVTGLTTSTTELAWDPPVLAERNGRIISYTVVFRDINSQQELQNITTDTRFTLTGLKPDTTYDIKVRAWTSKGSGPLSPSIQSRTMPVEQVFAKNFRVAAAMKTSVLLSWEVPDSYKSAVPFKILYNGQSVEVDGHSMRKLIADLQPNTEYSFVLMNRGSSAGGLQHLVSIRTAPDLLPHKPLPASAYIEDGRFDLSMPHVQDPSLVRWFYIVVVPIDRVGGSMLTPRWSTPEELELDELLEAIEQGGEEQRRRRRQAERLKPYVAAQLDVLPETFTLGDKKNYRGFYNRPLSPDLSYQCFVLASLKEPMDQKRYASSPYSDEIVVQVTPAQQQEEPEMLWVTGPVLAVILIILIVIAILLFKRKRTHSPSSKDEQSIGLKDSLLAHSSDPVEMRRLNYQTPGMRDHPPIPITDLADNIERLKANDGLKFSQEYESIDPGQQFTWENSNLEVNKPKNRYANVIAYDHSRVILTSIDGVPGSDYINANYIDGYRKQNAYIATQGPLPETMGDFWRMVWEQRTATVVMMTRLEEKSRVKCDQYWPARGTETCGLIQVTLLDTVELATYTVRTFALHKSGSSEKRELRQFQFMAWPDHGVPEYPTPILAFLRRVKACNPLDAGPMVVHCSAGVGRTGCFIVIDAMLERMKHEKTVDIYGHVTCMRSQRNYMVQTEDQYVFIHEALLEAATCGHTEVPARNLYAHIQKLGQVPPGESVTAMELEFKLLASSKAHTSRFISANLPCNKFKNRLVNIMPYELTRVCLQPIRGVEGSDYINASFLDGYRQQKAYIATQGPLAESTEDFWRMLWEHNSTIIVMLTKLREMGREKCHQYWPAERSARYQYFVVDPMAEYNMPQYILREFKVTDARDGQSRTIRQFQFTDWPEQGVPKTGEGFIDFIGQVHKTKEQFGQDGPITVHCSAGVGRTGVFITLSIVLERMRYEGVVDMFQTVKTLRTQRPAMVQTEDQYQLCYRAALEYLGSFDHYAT

| SMILES | pIC50 (DUSP3; [2]) | pIC50 (TCPTP) | pIC50 (PTP-SL) | pIC50 (CD45) | pIC50 (LAR) | pIC50 (DUSP6) | Effect on aggregation of DUSP3-deficient platelets [1] | pIC50 (PTP1B) | Tyrosine phosphorylation of immunoprecipitated Syk and PLCγ2 (human platelets; human platelets, CRP- or rhodocytin-activated) | Global tyrosine phosphorylation (pY) of ~70-kDa band (human platelets; total lysates of human platelets after stimulation with CRP or rhodocytin) | pIC50 (HePTP) | pIC50 (STEP) | selectivity for DUSP3 over DUSP22 (DUSP22; DUSP3 over DUSP22) [fold] | pIC50 (DUSP22; DUSP22) | pIC50 (LYP) | pIC50 (DUSP3; DUSP3) |
| --- | --- | --- | --- | --- | --- | --- | --- | --- | --- | --- | --- | --- | --- | --- | --- | --- |
| COc1ccc(-c2nnc(Nc3nc4c(OC)cccc4s3)o2)cc1 [MLS-0049585] | 5.57 | – | – | – | – | – | – | – | – | – | – | – | – | – | – | – |
| COc1ccc(-c2nnc(Nc3nc4c(F)cccc4s3)o2)cc1 [MLS-0437605] | – | 4.26 | 4.89 | < 4.00 | < 4.00 | < 4.00 | only minimally affected aggregation | < 4.00 | reduced | caused a decrease in pY | 4.42 | < 4.00 | 7 | 4.59 | 4.31 | 5.43 |
| COc1cc(C(=S)N2CCCCC2)ccc1O [MLS-0103602] | 6.43 | – | – | – | – | – | – | – | – | – | – | – | – | – | – | – |
